What was measured:
[1] = biological target: T1, Integrin alpha-4/beta-1 (Homo sapiens, UniProt P05556+P13612); experiment: Inhibition of human VCAM binding to VLA-4 of Ramos cells in ELISA; format: cell-based
[2] = biological target: T1, Integrin alpha-4/beta-1; experiment: Inhibition of human VCAM and Ramos cell VLA-4 interaction; format: cell-based

T1 sequence (P05556 whole entry): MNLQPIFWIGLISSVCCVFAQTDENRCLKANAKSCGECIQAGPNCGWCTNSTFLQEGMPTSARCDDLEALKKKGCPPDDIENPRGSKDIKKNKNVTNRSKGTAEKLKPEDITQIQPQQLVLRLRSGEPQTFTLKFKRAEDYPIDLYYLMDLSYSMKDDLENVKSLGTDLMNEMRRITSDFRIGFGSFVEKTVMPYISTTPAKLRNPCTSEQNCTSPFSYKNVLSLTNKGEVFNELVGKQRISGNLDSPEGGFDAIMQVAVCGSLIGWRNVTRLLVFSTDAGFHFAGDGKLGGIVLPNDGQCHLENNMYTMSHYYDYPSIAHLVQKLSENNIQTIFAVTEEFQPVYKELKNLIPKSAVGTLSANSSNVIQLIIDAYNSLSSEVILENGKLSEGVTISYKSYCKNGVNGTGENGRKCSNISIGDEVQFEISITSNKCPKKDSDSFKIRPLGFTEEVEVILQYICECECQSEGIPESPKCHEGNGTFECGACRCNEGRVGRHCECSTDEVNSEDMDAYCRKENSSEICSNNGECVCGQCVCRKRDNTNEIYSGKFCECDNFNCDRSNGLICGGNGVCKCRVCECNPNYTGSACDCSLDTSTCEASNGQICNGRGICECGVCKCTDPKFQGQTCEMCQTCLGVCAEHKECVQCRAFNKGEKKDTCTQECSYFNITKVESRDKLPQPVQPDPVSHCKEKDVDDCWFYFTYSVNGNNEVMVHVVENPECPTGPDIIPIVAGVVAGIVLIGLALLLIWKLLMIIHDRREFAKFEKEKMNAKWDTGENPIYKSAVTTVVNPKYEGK
T1 sequence (P13612 whole entry): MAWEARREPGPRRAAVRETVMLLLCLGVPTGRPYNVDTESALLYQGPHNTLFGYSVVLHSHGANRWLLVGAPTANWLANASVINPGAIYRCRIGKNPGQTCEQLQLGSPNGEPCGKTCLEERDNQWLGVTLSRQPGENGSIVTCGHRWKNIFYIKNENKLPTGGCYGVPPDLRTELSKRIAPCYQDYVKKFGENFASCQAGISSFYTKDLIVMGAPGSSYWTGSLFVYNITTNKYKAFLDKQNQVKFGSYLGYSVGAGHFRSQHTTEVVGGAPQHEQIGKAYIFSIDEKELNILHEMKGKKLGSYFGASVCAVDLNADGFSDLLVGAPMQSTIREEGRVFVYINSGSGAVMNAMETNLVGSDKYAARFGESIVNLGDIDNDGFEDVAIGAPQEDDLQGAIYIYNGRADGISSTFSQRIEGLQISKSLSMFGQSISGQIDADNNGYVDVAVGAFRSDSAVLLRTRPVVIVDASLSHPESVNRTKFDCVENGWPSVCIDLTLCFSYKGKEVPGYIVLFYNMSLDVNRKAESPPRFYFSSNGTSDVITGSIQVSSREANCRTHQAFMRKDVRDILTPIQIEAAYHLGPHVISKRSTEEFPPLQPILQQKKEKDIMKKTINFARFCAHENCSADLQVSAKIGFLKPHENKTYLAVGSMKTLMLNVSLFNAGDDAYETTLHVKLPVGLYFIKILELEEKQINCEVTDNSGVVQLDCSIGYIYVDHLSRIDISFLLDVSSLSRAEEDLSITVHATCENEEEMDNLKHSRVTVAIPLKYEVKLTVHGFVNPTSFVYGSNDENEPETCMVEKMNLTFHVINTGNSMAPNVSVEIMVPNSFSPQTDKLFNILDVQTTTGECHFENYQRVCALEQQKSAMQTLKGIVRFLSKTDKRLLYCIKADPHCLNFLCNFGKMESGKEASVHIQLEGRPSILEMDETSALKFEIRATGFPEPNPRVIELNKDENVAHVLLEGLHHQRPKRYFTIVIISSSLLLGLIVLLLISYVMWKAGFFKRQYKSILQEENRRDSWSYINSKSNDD

| Structure (SMILES) | IC50 [1] | IC50 [2] |
| --- | --- | --- |
| O=C(O)[C@H](Cc1ccc(N2C(=O)CC(c3ccc(O)cc3)C2=O)cc1)NC(=O)[C@@H]1CCC(=O)N1Cc1ccccc1 (stereo not given in full) | 2.6 nM | 420 nM |
| O=C(O)[C@H](Cc1ccc(N2C(=O)c3ccncc3C2=O)cc1)NC(=O)[C@@H]1CCC(=O)N1Cc1ccccc1 | 4.3 nM | 650 nM |
| O=C(Nc1ccc(C[C@H](NC(=O)[C@@H]2CCC(=O)N2Cc2ccccc2)C(=O)O)cc1)c1c(Cl)cccc1Cl | 0.37 nM | 12 nM |
| O=C(O)[C@H](Cc1ccc(N2CCCC2=O)cc1)NC(=O)[C@@H]1CCC(=O)N1Cc1ccccc1 | 16 nM | – |
| O=C(O)[C@H](Cc1ccc(N2C(=O)CCC2=O)cc1)NC(=O)[C@@H]1CCC(=O)N1Cc1ccccc1 | 3.2 nM | 286 nM |
| O=C(O)[C@H](Cc1ccc(N2Cc3ccccc3C2=O)cc1)NC(=O)[C@@H]1CCC(=O)N1Cc1ccccc1 | 2.7 nM | 500 nM |
| O=C(O)[C@H](Cc1ccc(N2C(=O)CC3(CCCC3)CC2=O)cc1)NC(=O)[C@@H]1CCC(=O)N1Cc1ccccc1 | 0.54 nM | 57 nM |

Next, values leading:

| IC50 [1] | IC50 [2] | Structure (SMILES) |
| --- | --- | --- |
| 0.94 nM | 123 nM | O=C(O)[C@H](Cc1ccc(N2C(=O)CC(Cc3ccccc3)C2=O)cc1)NC(=O)[C@@H]1CCC(=O)N1Cc1ccccc1 (stereo not given in full) |
| 0.76 nM | 41 nM | CC(C)CC1CC(=O)N(c2ccc(C[C@H](NC(=O)[C@@H]3CCC(=O)N3Cc3ccccc3)C(=O)O)cc2)C1=O (stereo not given in full) |
| 0.98 nM | 107 nM | O=C(O)[C@H](Cc1ccc(N2C(=O)Cc3ccccc3C2=O)cc1)NC(=O)[C@@H]1CCC(=O)N1Cc1ccccc1 |
| 0.99 nM | 184 nM | O=C(O)[C@H](Cc1ccc(N2C(=O)CCC(c3ccccc3)C2=O)cc1)NC(=O)[C@@H]1CCC(=O)N1Cc1ccccc1 (stereo not given in full) |
| 1.7 nM | 92 nM | O=C(O)[C@H](Cc1ccc(N2C(=O)CC(c3ccccc3)C2=O)cc1)NC(=O)[C@@H]1CCC(=O)N1Cc1ccccc1 (stereo not given in full) |
| 0.52 nM | 20 nM | O=C(O)[C@H](Cc1ccc(N2C(=O)c3ccccc3C2=O)cc1)NC(=O)[C@@H]1CCC(=O)N1Cc1ccccc1 |
